According to patent US10800811B2, “Pharmacologically active peptide compound, process for the preparation and use thereof” (Dipartimento di Scienze Biomediche e Biotecnologiche, priority 2016, dated 2020):
Where a name gives a salt, the structure may show the parent alone. No end group written: not given here.

Experiments:
ALS patients = conditions: background statement, cited from earlier work
ALS model mice = conditions: background statement; cited from earlier work
NSC34-SOD1-G93A cell = type: cell-based, mice
Protocol: The action of the said NHK1 peptide upon the complex VDAC1/SOD1-G93A, i.e. the complex formed by the interaction between protein VDAC1 and the mutant enzyme SOD1 (exactly the mutant G93A, where the glycine 93 was replaced by alanine) was evaluated by in vitro and in cellulo experiments, i.e. in the NSC34 cell line. NSC34 is a hybrid cell line obtained by fusing mice motor neurons with neuroblastoma cells. The NSC34 cell line is widely recognized as cell model of motor neurons and, following its transfection with mutated SOD1, it is considered a reference model of ALS [Cashman N R et al. Neuroblastoma×spinal cord (NSC) hybrid cell lines resemble developing motor neurons. Dev. Dyn. […]
The MTT assay is a colorimetric assay aimed to quantify the activity of dehydrogenase enzymes reducing 3-(4,5-dimethyltiazol-2-yl)-2,5-diphenyltetrazolium, yellow, to purple-blue formazan [Mosmann T., Rapid colorimetric assay for cellular growth and survival: application to proliferation and cytotoxicity assays. […]
Cells were seeded on 24-wells plates at a density of 80,000 cells/well, incubated for 24 hours and then transiently transfected with plasmid pEGFP-N1 expressing SOD1WT or SOD1-G93A or a mock. […] The MTT assay was read after 24 hours incubation. […]
The same vitality assay was repeated in the presence of the NHK1 peptide. […] The MTT assay was read after 24 hours incubation. […]

Q: Which “Efficacy in ALS” value (ALS patients) does the source give for `CCCN[C@@H]1CCc2nc(N)sc2C1` [Dexpramipexole] here?
A: lacks any efficacy in ALS patients

Q: For `O=S(=O)(c1cccc2cnccc12)N1CCCNCC1` [Fasudil hydrochloride], which “Efficacy in ALS” value (ALS patients) is on record?
A: inefficacy in ALS

Q: With `CCCCCCCCc1ccc(CCC(N)(CO)CO)cc1` [Fingolimid] as the compound, how does the “Efficacy in ALS” value (ALS patients) read?
A: does not show any activity in ALS

Q: With `O=C([O-])[O-].[Li+].[Li+]` [Lithium carbonate] as the compound, how does the “Efficacy in ALS” value (ALS patients) read?
A: no influence on disease progression and survival

Q: Which “Efficacy in ALS” value (ALS patients) does the source give for `Cc1ccc(NC(=O)c2ccc(CN3CCN(C)CC3)cc2)cc1Nc1nc(-c2cccnc2)cs1` [Masitinib] here?
A: inefficacy in ALS

Q: With `Nc1nc2ccc(OC(F)(F)F)cc2s1` [Riluzole] as the compound, how does the “Extension of life expectation” value (ALS patients; ALS, statistical analysis) read?
A: about three months

Q: For `C#Cc1cnc2nc(O)n(C(CC)CC)c2n1` [Tirasemvit], which “Improvement of skeletal muscle strength” value (ALS model mice) is on record?
A: did not confirm such ability

Q: Which “Toxicity for the cell” value (NSC34-SOD1-G93A cell) does the source give for “IAAQLLAYYFT [NHK1, Isoleucine-Alanine-Alanine-Glutamine-Leucine-Leucine-Alanine-Tyrosine-Tyrosine-Phenylalanine-Threonine]” here?
A: not toxic at all
